# Data from ChEMBL document CHEMBL4837216, “Polymyxin B-inspired non-hemolytic tyrocidine A analogues with significantly enhanced activity against gram-negative bacteria: How cationicity impacts cell specificity and antibacterial mechanism” (Eur J Med Chem, 2021).
# Calls of active or inactive are those of the source. No cut-off for these calls is given here. Where a SMILES comes first, the peptide text is derived from it. Bridges are numbered along the chain shown (N, C = ends). [ ]: non-standard residue; d: D form. The star is where a group is joined. X1 = CC[C@H](C)CCCCC(=O)*; Orn = NCCC[C@H](N)C(=O)O; Dab = NCC[C@H](N)C(=O)O
# Tests used:
# Escherichia coli [1] = test: Antibacterial activity against Escherichia coli ATCC 8739 assessed as inhibition of bacterial growth measured after 24 hrs by turbidity based analysis; format: functional
# Pseudomonas aeruginosa = test: Antibacterial activity against Pseudomonas aeruginosa ATCC 27853 assessed as inhibition of bacterial growth measured after 24 hrs by turbidity based analysis; format: functional
# Acinetobacter baumannii = test: Antibacterial activity against Acinetobacter baumannii ATCC 19606 assessed as inhibition of bacterial growth measured after 24 hrs by turbidity based analysis; format: functional; conditions: ATCC 19606 = CIP 70.34 = JCM 6841
# Staphylococcus aureus [2] = test: Antibacterial activity against Staphylococcus aureus ATCC 6538 assessed as inhibition of bacterial growth measured after 24 hrs by turbidity based analysis; format: functional
# Enterococcus faecalis = test: Antibacterial activity against Enterococcus faecalis ATCC 29212 assessed as inhibition of bacterial growth measured after 24 hrs by turbidity based analysis; format: functional
# Staphylococcus aureus [3] = test: Antibacterial activity against methicillin resistant Staphylococcus aureus assessed as inhibition of bacterial growth measured after 24 hrs by turbidity based analysis; format: functional
# [4] = Hemolytic activity in human RBC assessed as induction of cell lysis measured after 30 mins by microtiter plate method; format: cell-based, Erythrocyte; conditions: human red blood cells (erythrocytes)
# Cell membrane [5] = test: Induction of outer membrane permeabilization to NPN in Escherichia coli ATCC 8739 cells assessed as increase in fluorescence intensity by NPN-probe based fluorescence spectrophotometric analysis; format: subcellular
# Lipopolysaccharide (LPS) = test: Displacement of dansyl-polymyxinB from LPS (unknown origin) assessed as decrease in fluorescence intensity by fluorescence spectrophotometric analysis
# Cell membrane [6] = test: Induction of cytoplasmic membrane depolarization in Escherichia coli assessed as increase in fluorescence intensity a 1XMIC by DiSC3-5 dye based fluorescence method
# Cell membrane [7] = test: Induction of cytoplasmic membrane depolarization in Staphylococcus aureus assessed as increase in fluorescence intensity a 1XMIC by DiSC3-5 dye based fluorescence method
# Staphylococcus aureus [8] = test: Antibacterial activity against Staphylococcus aureus ATCC 6538 assessed as inhibition of bacterial growth measured after 17 passages by turbidity based analysis; format: functional, organism-based
# Escherichia coli [9] = test: Antibacterial activity against Escherichia coli ATCC 8739 assessed as inhibition of bacterial growth measured after 17 passages by turbidity based analysis; format: functional, organism-based
# L02 = test: Cytotoxicity against human L02 cells assessed as reduction in cell viability at 5 uM incubated for 24 hrs by CCK8 assay; format: cell-based; conditions: l02, 24 h
# Cell membrane [10] = test: Induction of cytoplasmic membrane permeabilization in Escherichia coli at 0.5 times MIC measured for 10 mins by propidium iodide dye based fluorescence assay; format: subcellular
# Cell membrane [11] = test: Induction of cytoplasmic membrane permeabilization in Escherichia coli at 1 times MIC measured for 10 mins by propidium iodide dye based fluorescence assay; format: subcellular
# Cell membrane [12] = test: Induction of cytoplasmic membrane permeabilization in Staphylococcus aureus at 0.5 times MIC measured for 10 mins by propidium iodide dye based fluorescence assay; format: subcellular
# Cell membrane [13] = test: Induction of cytoplasmic membrane permeabilization in Staphylococcus aureus at 1 times MIC measured for 10 mins by propidium iodide dye based fluorescence assay
# Lipid bilayer [14] = test: Binding affinity to bacterial inner membrane mimic DOPE/DOPG (3:1) large unilamellar vesicles assessed as calcein leakage measured after 30 mins fluorescence based assay
# Escherichia coli [15] = test: Bactericidal activity against Escherichia coli assessed as decrease in cell survival at 0.5XMIC measured after 24 hrs by colony counting assay; format: functional, organism-based
# Staphylococcus aureus [16] = test: Bactericidal activity against Staphylococcus aureus assessed as decrease in cell survival at 0.5XMIC measured after 24 hrs by colony counting assay; format: functional, organism-based
# Lipid bilayer [17] = test: Binding affinity to eukaryotic cell membrane mimic DOPC/Cholesterol (3:1) large unilamellar vesicles assessed as calcein leakage measured after 30 mins fluorescence based assay
Compound,MIC (Escherichia coli [1]),MIC (Pseudomonas aeruginosa),MIC (Acinetobacter baumannii),MIC (Staphylococcus aureus [2]),MIC (Enterococcus faecalis),MIC (Staphylococcus aureus [3]),HC50 at 0.5 h [4],Activity (Cell membrane [5]),Activity (Lipopolysaccharide (LPS)),Activity (Cell membrane [6]),Activity (Cell membrane [7]),further results
CC(C)C[C@@H]1NC(=O)[C@H](CCCN)NC(=O)[C@H](C(C)C)NC(=O)[C@H](Cc2ccc(O)cc2)NC(=O)[C@H](CCC(N)=O)NC(=O)[C@H](CCCN)NC(=O)[C@@H](Cc2ccccc2)NC(=O)[C@H](Cc2ccccc2)NC(=O)[C@@H]2CCCN2C(=O)[C@@H](Cc2ccccc2)NC1=O,20 µM,80 µM,5 µM,5 µM,2.5 µM,20 µM,20 µM,Active,–,–,–,–
CC(C)C[C@@H]1NC(=O)[C@H](CCCN)NC(=O)[C@H](C(C)C)NC(=O)[C@H](CCCN)NC(=O)[C@H](CCCN)NC(=O)[C@H](CCCN)NC(=O)[C@@H](Cc2ccccc2)NC(=O)[C@H](Cc2ccccc2)NC(=O)[C@@H]2CCCN2C(=O)[C@@H](Cc2ccccc2)NC1=O,5 µM,20 µM,10 µM,5 µM,5 µM,10 µM,196 µM,Active,Active,Active,Active,–
O=C(O)c1cn(C2CC2)c2cc(N3CCNCC3)c(F)cc2c1=O,–,–,–,–,–,–,–,–,–,–,–,Activity (Staphylococcus aureus [8]): inactive; Activity (Escherichia coli [9]): inactive
CC(C)C[C@@H]1NC(=O)[C@H](CCCN)NC(=O)[C@H](C(C)C)NC(=O)[C@H](CCCN)NC(=O)[C@H](CCC(N)=O)NC(=O)[C@H](CC(N)=O)NC(=O)[C@@H](Cc2ccccc2)NC(=O)[C@H](Cc2ccccc2)NC(=O)[C@@H]2CCCN2C(=O)[C@@H](Cc2ccccc2)NC1=O,40 µM,80 µM,10 µM,10 µM,5 µM,10 µM,43 µM,–,–,–,–,–
NCCC[C@@H]1NC(=O)[C@H](CCCN)NC(=O)[C@H](CCCN)NC(=O)[C@H](CCCN)NC(=O)[C@@H](Cc2ccccc2)NC(=O)[C@H](Cc2ccccc2)NC(=O)[C@@H]2CCCN2C(=O)[C@@H](Cc2ccccc2)NC(=O)[C@H](CCCN)NC(=O)[C@H](CCCN)NC1=O,40 µM,80 µM,80 µM,20 µM,10 µM,40 µM,> 400 µM,Active,Active,inactive,inactive,–
"CC(C)C[C@@H]1NC(=O)[C@H](CCCN)NC(=O)[C@H](C(C)C)NC(=O)[C@H](Cc2ccc(O)cc2)NC(=O)[C@H](CCCN)NC(=O)[C@H](CCCN)NC(=O)[C@@H](Cc2ccccc2)NC(=O)C(Cc2ccccc2)NC(=O)[C@@H]2CCCN2C(=O)[C@@H](Cc2ccccc2)NC1=O (single isomer, unassigned)",5 µM,40 µM,5 µM,5 µM,2.5 µM,5 µM,24 µM,–,–,–,–,–
CC(C)C[C@@H]1NC(=O)[C@H](CCCN)NC(=O)[C@H](C(C)C)NC(=O)[C@H](CCCN)NC(=O)[C@H](CCC(N)=O)NC(=O)[C@H](CCCN)NC(=O)[C@@H](Cc2ccccc2)NC(=O)[C@H](Cc2ccccc2)NC(=O)[C@@H]2CCCN2C(=O)[C@@H](Cc2ccccc2)NC1=O,5 µM,40 µM,10 µM,5 µM,5 µM,10 µM,282 µM,Active,–,Active,Active,–
CC(C)C[C@@H]1NC(=O)[C@H](CCCN)NC(=O)[C@H](C(C)C)NC(=O)[C@H](Cc2ccc(O)cc2)NC(=O)[C@H](CCCN)NC(=O)[C@H](CC(N)=O)NC(=O)[C@@H](Cc2ccccc2)NC(=O)[C@H](Cc2ccccc2)NC(=O)[C@@H]2CCCN2C(=O)[C@@H](Cc2ccccc2)NC1=O (cyclo(F[dF]N[Orn]YV[Orn]L[dF]P)),5 µM,40 µM,5 µM,2.5 µM,1.25 µM,5 µM,10 µM,–,–,–,–,–
CC(C)C[C@@H]1NC(=O)[C@H](CCCN)NC(=O)[C@H](C(C)C)NC(=O)[C@H](CCCN)NC(=O)[C@H](CCCN)NC(=O)[C@H](CC(N)=O)NC(=O)[C@@H](Cc2ccccc2)NC(=O)[C@H](Cc2ccccc2)NC(=O)[C@@H]2CCCN2C(=O)[C@@H](Cc2ccccc2)NC1=O,10 µM,20 µM,10 µM,10 µM,2.5 µM,10 µM,70 µM,–,–,–,–,–
CC(C)C[C@@H]1NC(=O)[C@H](CCCN)NC(=O)[C@H](C(C)C)NC(=O)[C@H](Cc2ccc(O)cc2)NC(=O)[C@H](CCC(N)=O)NC(=O)[C@H](CC(N)=O)NC(=O)[C@@H](Cc2ccccc2)NC(=O)[C@H](Cc2ccccc2)NC(=O)[C@@H]2CCCN2C(=O)[C@@H](Cc2ccccc2)NC1=O [TYROCIDINE A] (cyclo(F[dF]NQYV[Orn]L[dF]P)),20 µM,80 µM,10 µM,2.5 µM,2.5 µM,20 µM,14 µM,Active,Active,Active,Active,Activity (L02): Toxic; Activity (Cell membrane [10]): Active; Activity (Cell membrane [11]): Active; Activity (Cell membrane [12]): Active; Activity (Cell membrane [13]): Active; Activity (Lipid bilayer [14]): Active; Activity (Escherichia coli [15]): inactive; Activity (Staphylococcus aureus [16]): inactive; Activity (Lipid bilayer [17]): Active
CC[C@H](C)CCCCC(=O)N[C@@H](CCN)C(=O)N[C@H](C(=O)N[C@@H](CCN)C(=O)N[C@H]1CCNC(=O)[C@H]([C@@H](C)O)NC(=O)[C@H](CCN)NC(=O)[C@H](CCN)NC(=O)[C@H](CC(C)C)NC(=O)[C@@H](Cc2ccccc2)NC(=O)[C@H](CCN)NC1=O)[C@@H](C)O (X1-[Dab]T[Dab][Dab][Dab][dF]L[Dab][Dab]T; lactam 4-C),–,–,–,–,–,–,–,–,Active,–,–,–
CC(C)[C@@H]1NC(=O)[C@H](CCCN)NC(=O)[C@H](CCCN)NC(=O)[C@H](CCCN)NC(=O)[C@@H](Cc2ccccc2)NC(=O)[C@H](Cc2ccccc2)NC(=O)[C@@H]2CCCN2C(=O)[C@@H](Cc2ccccc2)NC(=O)[C@H](CCCN)NC(=O)[C@H](CCCN)NC1=O,80 µM,80 µM,80 µM,40 µM,10 µM,10 µM,> 400 µM,–,Active,–,–,–
